Results taken from patent US11230535B2, “CFTR regulators and methods of use thereof” (THE REGENTS OF THE UNIVERSITY OF CALIFORNIA, priority 2015, dated 2022).
Entries after “also recorded” stand apart in the source; their conditions may differ.

Key:
[1] = system: CFTR activity at the ocular surface; assay: Ocular surface potential difference (PD) in living mice; assay type: in vivo, mouse; settings: wild-type mice; for change in ocular surface PD, in words: 1-10 μM
Method: (§1) Open-circuit transepithelial PD were measured continuously in anesthetized mice in response to serial perfusions of different solutions over the ocular surface, as described (21). Mice were anesthetized with Avertin (2,2,2-tribromoethanol, 125 mg/kg intraperitoneal, Sigma-Aldrich, St. Louis, Mo., USA), and core temperature was maintained at 37° C. using a heating pad. Eyes were oriented with the cornea and conjunctiva facing upward and exposed by retracting the eyelid with cross-action forceps. Solutions were isosmolar (320±10 mOsM; compositions provided in ref. 21) and contained 10μ[…] Qindomethacin to prevent CFTR activation by prostaglandins. The ocular surface was perfused at 6 mL/min through plastic tubing using a multireservoir gravity pinch-valve system (ALA Scientific, Westbury, N.Y., USA) and variable-flow peristaltic pump (medium flow model; Fisher Scientific, Fair Lawn, N.J., USA). A probe catheter was fixed 1 mm above the cornea using a micropositioner and a suction cannula was positioned 3 mm from the orbit. The measuring electrode was in contact to the perfusion catheter and connected to a high-impedance voltmeter (IsoMilivolt Meter; WPI). The reference electrode was grounded via a winged 21-gauge needle filled with isosmolar saline, and inserted subcutaneously in the abdomen. Measuring and reference electrodes consisted of Ag/AgCl with 3 M KCl agar bridges.
An open-circuit potential difference (PD) method developed in our lab was used to evaluate compound activity at the ocular surface in vivo, as depicted in FIG. 3A (21). Cl^− channel function was quantified by measuring PD during continuous perfusion of the ocular surface with a series of solutions that imposed a transepithelial Cl^− gradient and contained various channel agonists and/or inhibitors. The ocular surface was first perfused with isosmolar saline to record the baseline PD. Amiloride was then added to the perfusate, followed by exchange to a low Cl^− solution in which Cl^− with an impermeant anion, gluconate. These maneuvers allow for direct visualization of CFTR activation in response to addition of candidate CFTR activators.
as §1, with “Ocular surface potential difference measurements. Open-circuit” for “Open-circuit”, “indomethacin” for “Qindomethacin”, “Measuring and reference electrodes consisted of Ag/AgCl with 3 M KCl agar bridges.” left out

mice = assay: Tear secretion / tear volume in mice (phenol red thread); assay type: in vivo, mouse; settings: for duration of increased tear secretion / increase in tear fluid secretion / tear secretion, in words: single topical dose, wild-type mice; for tear secretion / tear volume in CF mice: CF mice lacking functional CFTR
Method: (§2) To measure unstimulated tear production, phenol red threads (Zone-Quick, Oasis Medical, Glendora, Calif., USA) were placed for 10 s in the lateral canthi of isofluorane-anesthetized mice using jewelers' forceps. Tear volume was measured as the length of thread wetting, as visualized under a dissecting microscope. Serial measurements were used to evaluate compound pharmacodynamics after application of 2-μL drops of compound formulations (50-100 μM compound in PBS containing 0.5% polysorbate and 0.5% DMSO) comparing to vehicle.
as §2, with “Tear secretion. To” for “To”, “2-[…]L” for “2-μL”
Tear volume. Tear volume was measured using phenol red threads (Zone-Quick, Oasis Medical, Glendora, Calif.) as described. Threads were placed for 10 s in the lateral canthi of isofluorane-anesthetized mice using jewelers' forceps. Tear volume was determined from the length of thread wetting as visualized under a dissecting microscope. Serial measurements were done to evaluate compound pharmacodynamics after topical application of a single, 2.5-μL drop of ophthalmic formulation containing 0-100 μM of 1 or 12 in Ringer's solution with 0.3% carboxymethylcellulose (high viscosity, VWR, Radnor, Pa.), 0.015% benzalkonium chloride preservative, and 1% DMSO. Both eyes in each mouse received the same treatment to control for potential contralateral effects of a given treatment.

| Compound | change in ocular surface PD, in words [1] | duration of increased tear secretion (mice) | increase in tear fluid secretion (mice) | hyperpolarization in ocular surface potential difference [1] | tear secretion / tear volume in CF mice (mice) | tear secretion, in words (mice) | duration of sustained effect on tear volume (mice; 25 pmol, single dose) | duration of sustained increase in tear volume (mice; 100 μM (250 pmol), single dose) | time of return of tear volume to baseline (mice; 100 μM (250 pmol), single dose) | time of maximal tear volume (mice; doses down to 25 pmol) | duration of sustained in vivo efficacy (mice; mice) | lowest dose with similar activity on tear volume (mice; single-dose dose-response) |
| --- | --- | --- | --- | --- | --- | --- | --- | --- | --- | --- | --- | --- |
| Nc1ccc([N+](=O)[O-])cc1-c1nc2ccccc2n(Cc2ccccc2)c1=O [CFTRact-J027, 3-(2-amino-5-nitrophenyl)-1-benzylquinoxalin-2(1H)-one] | large hyperpolarizations | at least four | approximately two-fold |  |  |  |  |  |  |  |  |  |
| CCN(CC)c1nc(Nc2ccccc2)nc(OC(C(F)(F)F)C(F)(F)F)n1 [CFTRact-K089, N,N-Diethyl-6-[(1,1,1,3,3,3-hexafluoropropan-2-yl)oxy]-N′-phenyl-1,3,5-triazine-2,4-diamine] | large hyperpolarizations | four and at least four | approximately two-fold | ~8.5 mV | no effect | doubled basal tear secretion |  |  |  |  |  |  |
| CC(C)(C)c1cc(C(C)(C)C)c(NC(=O)c2c[nH]c3ccccc3c2=O)cc1O [VX-770, reference compound] | minimal changes in ocular surface PD |  |  |  |  | little tear secretion |  |  |  |  |  |  |
| CNc1nc(Nc2ccccc2)nc(OCC(F)(F)C(F)F)n1 [compound 12, N-methyl-N′-phenyl-6-(2,2,3,3-tetrafluoropropoxy)-1,3,5-triazine-2,4-diamine] |  |  |  |  | without effect; also recorded: did not increase tear volume |  | 8 h | 8 h | 12 to 24 h | 1 to 3 h | at least 8 hours | 25 pmol |
